As usually defined, the IC50 is the concentration that gives 50% inhibition.

The target of the first test is T1, cyclin D2-Cdk4 (Homo sapiens, UniProt P11802).
T1 construct: made in house; host or cells: Sf9 insect cells (baculovirus co-infection)
T1 sequence (P11802 whole entry): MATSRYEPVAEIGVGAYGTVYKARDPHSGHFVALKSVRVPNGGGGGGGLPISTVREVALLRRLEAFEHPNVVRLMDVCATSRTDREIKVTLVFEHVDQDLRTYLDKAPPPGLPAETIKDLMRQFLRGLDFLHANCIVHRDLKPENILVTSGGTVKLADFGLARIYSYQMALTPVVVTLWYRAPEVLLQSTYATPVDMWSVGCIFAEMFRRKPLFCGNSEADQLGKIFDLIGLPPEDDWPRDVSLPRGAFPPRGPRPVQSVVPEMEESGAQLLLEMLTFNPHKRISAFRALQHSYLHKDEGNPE
T1 sequence (P30279 whole entry partner): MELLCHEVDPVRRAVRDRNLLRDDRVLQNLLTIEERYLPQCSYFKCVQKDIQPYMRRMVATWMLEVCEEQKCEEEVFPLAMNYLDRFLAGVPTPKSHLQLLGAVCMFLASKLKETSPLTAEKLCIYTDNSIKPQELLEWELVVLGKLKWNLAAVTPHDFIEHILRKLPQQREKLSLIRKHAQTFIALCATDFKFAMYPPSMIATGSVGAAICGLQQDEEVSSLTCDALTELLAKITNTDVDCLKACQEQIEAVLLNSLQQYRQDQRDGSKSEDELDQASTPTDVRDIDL
Kind of test: Cyclin D2-Cdk4 inhibitory activity (33P-ATP phosphorylation of RB peptide substrate). The following applies: 50 μM ATP, 100 μM substrate peptide, 30° C., 45 minutes; read-out: IC50 against cyclin D2-Cdk4 activity. The class given is biochemical. The text has this: cDNAs of Cdk4 and its activating factor cyclin D2 were each introduced into a baculovirus expression vector to obtain a recombinant baculovirus; it was then co-infected to an insect cell Sf9 to highly express active cyclin D2/Cdk4 complexes. The cells were recovered, solubilized and the enzymes were purified by HPLC column chromatography (The Embo Journal, vol. 15, 7060-7069 (1996)).
In the determination of cyclin D2-Cdk4 activity, a synthetic peptide […]corresponding to the amino acid number 775-787 of RB protein was used as a substrate [The EMBO Journal, vol. 15, 7060-7069 (1996)].
The reaction was carried out according to a method partially modifying Kitagawa et al. (Oncogene, vol. 7, 1067-1074 (1992)). Purified cyclin D2-Cdk4, 100 μM substrate peptide, 50 μM non-labeled adenosine triphosphate (ATP) and 1 μCi [γ-33P]-labeled ATP (2000-4000 Ci/mmole) were added to a reaction buffer (referred to as R buffer) consisting of 20 mM Tris-HCl buffer (pH 7.4), 10 mM magnesium chloride, 4.5 mM 2-mercaptoethanol and 1 mM ethylene glycol bis(β-aminoethyl ether)-N,N,N′,N′-tetraacetic acid (EGTA) to make a total volume of 21.1 μl. The mixture was incubated at 30° C. for 45 minutes. After that, 350 mM phosphate buffer (10 μl) was added to the reaction solution to stop the reaction. The peptide substrate was adsorbed on a P81 paper filter in a 96-well plate, and the plate was washed several times with 75 mM phosphate buffer, and then its radioactivity was measured by a liquid scintillation counter. The [γ-33P]-labeled ATP was purchased from Daiichi Pure Chemicals.
Addition of test compounds to the reaction system was carried out in such a manner that the compounds were dissolved in dimethyl sulfoxide to prepare a series of diluted solutions, and then each aliquot (1.1 μl) was added to the reaction system. A control group was prepared by addition of only dimethyl sulfoxide (1.1 μl) to the reaction system.
The compounds in the following Working Examples were chosen as typical compounds of the present invention, and IC50 values against cyclin D2-Cdk4 activity of those compounds were determined.
For `O=c1[nH]c2cc(CN3CCOCC3)cc3c2nc1-c1cccc2c(=O)n(sc12)CCN1CCC(CC1)O3` [[39]], the IC50 was 6.9 nM.

`Cc1cnc(-c2cc3c4nc(c(=O)[nH]c4c2)-c2cccc4c(=O)n([nH]c24)CCN2C[C@H](C[C@H]2C)O3)nc1` [[85]]: the IC50 is 6.7 nM.

Take `C[C@@H]1CC2CN1CCn1[nH]c3c(cccc3c1=O)-c1nc3c(cc(C4CCCCO4)cc3[nH]c1=O)O2` (some centres unmarked) [[140]]: the IC50 amounted to 3 nM. For the molecule `O=c1[nH]c2cccc3c2nc1-c1cccc2c(=O)n([nH]c12)CCCCCO3` [[48]], the IC50 stood at 3.6 nM.

Regarding `COCCOCc1cc2c3nc(c(=O)[nH]c3c1)-c1cccc3c(=O)n([nH]c13)CCN1C[C@H](C[C@H]1C)O2` [[138]], the IC50 amounted to 4.2 nM. Same read-out and setting: with `C[C@@H]1C[C@H]2CN1CCn1[nH]c3c(cccc3c1=O)-c1nc3c(c(CNC4CC4)ccc3[nH]c1=O)O2` [[144]] the figure was 2.9 nM; with `O=c1[nH]c2cc(CN3CCOCC3)cc3c2nc1-c1cccc2c(=O)n(sc12)CCN1CC[C@@H](C1)O3` [[32]], 9 nM; with `Cc1cc2c3nc(c(=O)[nH]c3c1)-c1cccc3c(=O)n([nH]c13)CCN1C[C@H](C[C@H]1C)O2` [[135]], 2.5 nM. For the molecule `C[C@@H]1C[C@H]2CN1CCn1[nH]c3c(cccc3c1=O)-c1nc3c(cc(N4CCN(Cc5ccccc5)CC4)cc3[nH]c1=O)O2` [[130]], the IC50 came to 6.5 nM. The same measure, in the same setting: the figure for `COC[C@@H]1CCCN1c1cc2c3nc(c(=O)[nH]c3c1)-c1cccc3c(=O)n([nH]c13)CCN1CC(C[C@H]1C)O2` (some centres unmarked) [[123]] is 9.6 nM; for `C[C@@H]1C[C@H]2CN1CCn1[nH]c3c(cccc3c1=O)-c1nc3c(cc(-c4ncc(C(F)(F)F)cn4)cc3[nH]c1=O)O2` [[84]] it is 6.2 nM; for `C[C@@H]1C[C@H]2CN1CCn1[nH]c3c(cccc3c1=O)-c1nc3c(cc(-c4ccccc4)cc3[nH]c1=O)O2` [[102]] it is 1.4 nM. In the case of `C[C@@H]1C[C@H]2CN1CCn1[nH]c3c(cccc3c1=O)-c1nc3c(c(CNC4CCCC4)ccc3[nH]c1=O)O2` [[143]], the concentration for half-maximal inhibition (IC50) amounted to 2.2 nM. The same measure, in the same setting: the figure for `C[C@@H]1C[C@H]2CN1CCn1[nH]c3c(cccc3c1=O)-c1nc3c(cc(-c4ccncc4)cc3[nH]c1=O)O2` [[95]] is 4.1 nM; for `C[C@H]1COc2cccc3[nH]c(=O)c(nc23)-c2cccc3c2SN(CCN1C)C3=O` [[7]] it is 3.5 nM.

Regarding `C[C@@H]1C[C@H]2CN1CCn1[nH]c3c(cccc3c1=O)-c1nc3c(cc(-c4ccc(OC(F)(F)F)cc4)cc3[nH]c1=O)O2` [[118]], the IC50 worked out at 14 nM. Still for that read-out and setting: the figure for `CO[C@@H]1CCCN(Cc2cc3c4nc(c(=O)[nH]c4c2)-c2cccc4c(=O)n(sc24)CCN2CCC(CC2)O3)C1` [[38]] is 12 nM; for `COC[C@H]1CCCCN1Cc1cc2c3nc(c(=O)[nH]c3c1)-c1cccc3c(=O)n(sc13)C[C@@H]1CC[C@H](CO2)O1` [[28]] it is 16 nM. Same read-out and setting: with `C[C@@H]1CC2CN1CCn1[nH]c3c(cccc3c1=O)-c1nc3c(cc(C4CCCCO4)cc3[nH]c1=O)O2` (some centres unmarked) [[139]] the figure was 3 nM. Same read-out and setting: the figure for `COC[C@H]1CCCN1c1cc2c3nc(c(=O)[nH]c3c1)-c1cccc3c(=O)n([nH]c13)CCN1CC(C[C@H]1C)O2` (some centres unmarked) [[125]] is 15 nM; for `C[C@@H]1C[C@H]2CN1CCn1[nH]c3c(cccc3c1=O)-c1nc3c(cc(-c4cccnc4)cc3[nH]c1=O)O2` [[94]] it is 3.6 nM. On to `CO[C@@H]1CCCN(Cc2cc3c4nc(c(=O)[nH]c4c2)-c2cccc4c(=O)n(sc24)CCN2CC[C@@H](C2)O3)C1` [[34]], for which the IC50 came to 12 nM. The same measure, in the same setting: with `C[C@@H]1CCCCn2[nH]c3c(cccc3c2=O)-c2nc3c(cc(CN4CCCCC4)cc3[nH]c2=O)O1` [[46]] the figure was 3.1 nM; with `C[C@@H]1C[C@H]2CN1CCn1[nH]c3c(cccc3c1=O)-c1nc3c(cc(CN4CCOCC4)cc3[nH]c1=O)O2` [[136]], 3.2 nM. On the same count and under the same terms, the figure for `Cc1nc(-c2cc3c4nc(c(=O)[nH]c4c2)-c2cccc4c(=O)n([nH]c24)CCN2C[C@H](C[C@H]2C)O3)no1` [[89]] is 2.7 nM; for `O=c1[nH]c2cccc3c2nc1-c1cccc2c(=O)n(sc12)CCN1CCC(C1)O3` (racemic) [[10]] it is 6.3 nM. On the same count and under the same terms, with `O=c1[nH]c2cc(CN3CCCCC3)cc3c2nc1-c1cccc2c(=O)n(sc12)[C@@H]1CC[C@H](CCO3)C1` [[23]] the figure was 2.1 nM. On to `C[C@@H]1CC2CN1CCn1[nH]c3c(cccc3c1=O)-c1nc3c(cc(N4CC5CCC(CC5)C4)cc3[nH]c1=O)O2` (some centres unmarked) [[124]], for which the IC50 was found to be 8.2 nM. For `O=c1[nH]c2ccc(CCN3CCCCC3)c3c2nc1-c1cccc2c(=O)n(sc12)CCCCCO3` [[80]], the IC50 was found to be 1.7 nM.

`COc1cccc(-c2cc3c4nc(c(=O)[nH]c4c2)-c2cccc4c(=O)n([nH]c24)CCN2C[C@H](C[C@H]2C)O3)c1` [[107]]: the IC50 is 7.7 nM.

With `COC[C@H]1CCCCN1Cc1cc2c3nc(c(=O)[nH]c3c1)-c1cccc3c(=O)n(sc13)CCN1CC[C@@H](C1)O2` [[36]], the IC50 was 34 nM.

For `C[C@@H]1C[C@H]2CN1CCn1[nH]c3c(cccc3c1=O)-c1nc3c(cc(-c4ccccn4)cc3[nH]c1=O)O2` [[90]], the IC50 came to 3.7 nM. With `COCc1cc2c3nc(c(=O)[nH]c3c1)-c1cccc3c(=O)n(sc13)CCN1CC[C@@H](C1)O2` [[45]], the IC50 stood at 14 nM. On to `C[C@@H]1C[C@H]2CN1CCn1[nH]c3c(cccc3c1=O)-c1nc3c(c(CN4CCCCC4)ccc3[nH]c1=O)O2` [[131]], for which the IC50 is 8.2 nM.

As for `C[C@@H]1C[C@H]2CN1CCn1[nH]c3c(cccc3c1=O)-c1nc3c(cc(-c4cncnc4)cc3[nH]c1=O)O2` [[91]], the IC50 turned out to be 3.2 nM.

With `COCc1cc2c3nc(c(=O)[nH]c3c1)-c1cccc3c(=O)n([nH]c13)CCN1C[C@H](C[C@H]1C)O2` [[137]], the IC50 stood at 3.4 nM. Consider `C[C@@H]1C[C@H]2CN1CCn1[nH]c3c(cccc3c1=O)-c1nc3c(c(CNC(C)(C)C)ccc3[nH]c1=O)O2` [[145]], for which the IC50 is 2.7 nM.

With `C[C@@H]1C[C@H]2CN1CCn1[nH]c3c(cccc3c1=O)-c1nc3c(c(CNCC(F)(F)F)ccc3[nH]c1=O)O2` [[146]], the IC50 amounted to 5.2 nM. The same measure, in the same setting: with `C[C@@H]1CC2CN1C[C@H](C)n1[nH]c3c(cccc3c1=O)-c1nc3c(cccc3[nH]c1=O)O2` (some centres unmarked) [[142]] the figure was 15 nM. `C[C@@H]1C[C@H]2CN1CCn1[nH]c3c(cccc3c1=O)-c1nc3c(cc(-n4ncc5ccccc54)cc3[nH]c1=O)O2` [[99]]: the half-maximal inhibitory concentration (IC50) is 5.2 nM. The same measure, in the same setting: the figure for `CO[C@H]1CCCN(Cc2cc3c4nc(c(=O)[nH]c4c2)-c2cccc4c(=O)n(sc24)CCN2CC[C@@H](C2)O3)C1` [[35]] is 12 nM.

Another test relates to HCT116 cells. Kind of test: Inhibitory activity of BrdU uptake in HCT116 cells (Cell Proliferation ELISA, chemiluminescence). The class given is cell-based. The following applies: HCT-116; HCT116 cells derived from human colon cancer, cultured with compound for 12 hours, BrdU pulse 1 hour. How it is done:
Growing cells perform DNA duplication in the S phase of the cell cycle, and divide into daughter cells in the M phase via the G2 phase. As an index for the cell growth, there is a method to determine the amount of BrdU taken into newly synthesized DNAs in the DNA duplicating cells ((J. Immunol Methods, vol. 82, p. 169-179 (1985); J. Immunolog. Methods, vol. 106, p. 95-100 (1988); Cytometry, vol. 14, p. 640-648 (1993)). Inhibitory activities of BrdU uptake was determined in order to investigate the effect of the compounds of the present invention against cancer cells.
HCT116 cells derived from human colon cancer were cultured in Dulbecco's modified Eagle's medium containing 10% fetal bovine serum at 37° C. in the presence of 5% carbon dioxide under an atmosphere of saturated steam.
Cell culture medium (100 μl each) containing 2.5×10^3 of HCT116 cells was dispensed into each well of a 96-well cell culture dish, and then the cells were pre-cultured overnight. On the next day, a series of diluted solutions was prepared with DMSO from a DMSO solution containing the compounds of the present invention. Then, a series of diluted solutions, or DMSO only as a control without addition of the compound, was added in an amount of 1% to the cell culture medium. Finally, 100 μl of culture medium containing the above diluted solution containing the compounds or DMSO only were each added to the cells which had been pre-cultured in the 96-well dish, and then the cells were cultured for 12 hours.
Quantitative determination of BrdU uptake was performed using the Cell Proliferation ELISA, BrdU (chemiluminescence)(Roche Diagnostics). Each 20 μL of 10× concentrated BrdU labeling reagent was added to the cells which had been cultured together with the compound for 12 hours, which were subjected to pulse labeling at 37° C. for 1 hour, and then the culture solution was removed. Then, after addition of a FixDenat solution to the cells, the cells were incubated at room temperature for 30 minutes for fixation of cells and denaturation of DNA. After removal of the FixDenat solution, anti-BrdU antibody labeled with peroxidase was added to the cells, and then the cells were incubated at room temperature for 90 minutes. The cells were washed four times with a washing solution, and a substrate was added thereto. The cells were incubated at room temperature for 10 minutes and chemical luminescence was determined with a luminometer.
As typical compounds of the present invention, the compounds [11], [12], [39], [51], [71], [83], [85], [134] and [141] were chosen, and IC50 values of these compounds on BrdU uptake were determined.
A general note: An ELISA detects its analyte on a solid surface through an enzyme-linked reagent.
For the molecule `O=c1[nH]c2cc(CN3CCOCC3)cc3c2nc1-c1cccc2c(=O)n(sc12)CCN1CCC(CC1)O3` [[39]], the IC50 is 9.4 nM.

Consider `Cc1cnc(-c2cc3c4nc(c(=O)[nH]c4c2)-c2cccc4c(=O)n([nH]c24)CCN2CC(C[C@H]2C)O3)nc1` (some centres unmarked) [[85]], for which the IC50 came to 20 nM. In the case of `C[C@@H]1CC2CN1CCn1[nH]c3c(cccc3c1=O)-c1nc3c(cccc3[nH]c1=O)O2` (some centres unmarked) [[134]], the IC50 is 7.8 nM.

The values are drawn from patent US7388010B2, “Quinoxalinone derivatives” (Banyu Pharmaceutical Co., Ltd., priority 2002, dated 2008).
